Test results published in ChEMBL document CHEMBL1201862, “PubChem BioAssay data set” (2004).
Activity calls are given as the source filed them.

Legend:
[1] = tested on: Vero; experiment: cells; format: functional, cell-based; settings: Chlorocebus sabaeus
[2] = viability of uninfected HEp-2 cells – cell-based, HTS, cytotoxicity control for RSV inhibitor project, dose response (AID 2410); format: functional; settings: human respiratory syncytial virus
[3] = cells
[4] = target: Peroxisome proliferator-activated receptor gamma/Nuclear receptor corepressor 2 (Homo sapiens, UniProt P37231+Q9Y618); experiment: Counterscreen for NR2E3 inverse agonists: TR-FRET-based biochemical high throughput dose response assay to identify inverse agonists of the interaction between peroxisome proliferator-activated receptor gamma (PPARg) and nuclear receptor co-repressor 2 (NCOR2).; format: functional
[5] = target: Photoreceptor-specific nuclear receptor (Homo sapiens, UniProt Q9Y5X4); experiment: ligands suppressing NR2E3 nuclear receptor activity – biochemical, TR-FRET, dose response (AID 463256); format: functional
[6] = ADP-Glo luciferase signal interference – biochemical, luminescence, cherry-picked samples, set 2, artefact control for CDK5 inhibitor project, dose response (AID 504546); format: functional, cell-based
[7] = target: T1, Microphthalmia-associated transcription factor (Homo sapiens, UniProt O75030); experiment: reducers of TRPM1 reporter luminescence, concentration series – cell-based, SK-MEL-5, cherry-picked, set 3, MITF inhibitor project, dose response (AID 493073); format: functional;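 also: SK-MEL-5 melanoma cells with luciferase driven by the MITF target TRPM1 promoter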
T1 sequence (O75030 whole entry): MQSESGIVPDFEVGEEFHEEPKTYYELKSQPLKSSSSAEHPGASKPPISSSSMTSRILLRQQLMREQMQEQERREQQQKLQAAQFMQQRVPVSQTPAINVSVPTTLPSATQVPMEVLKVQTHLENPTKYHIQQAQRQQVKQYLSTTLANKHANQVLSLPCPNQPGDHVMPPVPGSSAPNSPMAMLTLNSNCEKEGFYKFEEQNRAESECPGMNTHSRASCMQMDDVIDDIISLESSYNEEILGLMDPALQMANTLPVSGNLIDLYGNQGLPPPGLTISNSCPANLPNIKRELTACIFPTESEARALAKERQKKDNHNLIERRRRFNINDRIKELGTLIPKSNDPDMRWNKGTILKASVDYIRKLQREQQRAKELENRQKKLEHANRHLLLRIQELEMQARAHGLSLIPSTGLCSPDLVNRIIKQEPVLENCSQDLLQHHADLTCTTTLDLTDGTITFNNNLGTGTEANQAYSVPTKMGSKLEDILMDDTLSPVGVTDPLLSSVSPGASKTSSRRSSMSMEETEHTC

[8] = target: Cyclin-dependent kinase 5/CDK5 activator 1 (Homo sapiens, UniProt Q00535); experiment: blockade of human CDK5 activity – biochemical, cherry-picked samples, set 2, dose response (AID 504545)
[9] = tested on: HEK293; experiment: EBV LMP1 TES2 canonical NF-kB signalling blockers – cell-based, HEK293, luciferase, cherry-pick, dose response (AID 588343); format: functional; settings: Homo sapiens
[10] = target: Lysosomal acid glucosylceramidase (Homo sapiens, UniProt P04062); experiment: Dose response cell-based high throughput screening assay to identify enhancers of beta-glucosidase activity. [Related pubchem assays: 784 ]; format: functional
[11] = tested on: Streptococcus; experiment: Luminescence Microorganism-Based Dose Response Follow up to Identify Compounds Cytotoxic to Streptococcus. [Related pubchem assays: 1677 (Project Summary), 1915, 1914, 1902 (Retest at Dose), 1900 (Counter Screen), 1662 (Primary HTS)]; format: functional, organism-based
[12] = Luminescence Cell-Based Dose Confirmation HTS to Identify Activators of 5'UTR Stem-Loop Driven Alpha-Synuclein mRNA Translation in H4 Neuroglioblastoma Cells. [Related pubchem assays: 1829 (Project Summary), 1814 (Primary HTS)]; format: functional
[13] = Luminescence Cell-Based Dose Response HTS to Identify Activators of Luciferase Translation or Activity in H4 […] Cells. [Related pubchem assays: 1829 (Project Summary), 1814 (Primary HTS)]; format: functional
[14] = target: Mitogen-activated protein kinase 10 (Homo sapiens, UniProt P53779); experiment: Dose response biochemical screening assay for inhibitors of c-Jun N-Terminal Kinase 3 (JNK3). [Related pubchem assays: 746 ]
[15] = tested on: H4; experiment: Luminescence Cell-Based Dose Response HTS to Identify Activators of 5'UTR Stem-Loop Driven Prion Protein mRNA Translation in H4 Neuroglioblastoma Cells. [Related pubchem assays: 1829 (Project Summary), 1814 (Primary HTS)]; format: functional; settings: Homo sapiens
[16] = A Cell Based Secondary Assay To Explore Cytotoxicity of Compounds that Sensitize Mycobacterium Tuberculosis to Beta-Lactam Antibiotics.; format: functional
[17] = target: Cytochrome P450 2D6 (Homo sapiens, UniProt P10635);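 also: CYP2D6 member of a cytochrome P450 panel assay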
[18] = Trypanosoma cruzi growth suppression in host cells – NIH3T3 host cells, beta-gal luminescence, confirmation (AID 2044); format: functional, cell-based;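 also: intracellular parasites grown in NIH/3T3 mouse fibroblasts as host cells; luminescent beta-galactosidase reporter signal from transgenic T. cruzi replicating inside host cells; inhibitors lower the luminescence signal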
[19] = cells; remark: listed apart in the source
[20] = NIH3T3 cell viability loss – ATP luminescence, mouse fibroblasts, counter-screen, dose response (AID 2010); format: functional, cell-based;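 also: cells exposed to compound for about 90 hours before reading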
[21] = target: Voltage-gated inwardly rectifying potassium channel KCNH2 (Homo sapiens, UniProt Q12809); experiment: concentration-dependent hERG rescue from blockers – cell-based, thallium flux, dose response (AID 2121); format: ADME
Sequence of Voltage-gated inwardly rectifying potassium channel KCNH2 (Q12809 whole entry): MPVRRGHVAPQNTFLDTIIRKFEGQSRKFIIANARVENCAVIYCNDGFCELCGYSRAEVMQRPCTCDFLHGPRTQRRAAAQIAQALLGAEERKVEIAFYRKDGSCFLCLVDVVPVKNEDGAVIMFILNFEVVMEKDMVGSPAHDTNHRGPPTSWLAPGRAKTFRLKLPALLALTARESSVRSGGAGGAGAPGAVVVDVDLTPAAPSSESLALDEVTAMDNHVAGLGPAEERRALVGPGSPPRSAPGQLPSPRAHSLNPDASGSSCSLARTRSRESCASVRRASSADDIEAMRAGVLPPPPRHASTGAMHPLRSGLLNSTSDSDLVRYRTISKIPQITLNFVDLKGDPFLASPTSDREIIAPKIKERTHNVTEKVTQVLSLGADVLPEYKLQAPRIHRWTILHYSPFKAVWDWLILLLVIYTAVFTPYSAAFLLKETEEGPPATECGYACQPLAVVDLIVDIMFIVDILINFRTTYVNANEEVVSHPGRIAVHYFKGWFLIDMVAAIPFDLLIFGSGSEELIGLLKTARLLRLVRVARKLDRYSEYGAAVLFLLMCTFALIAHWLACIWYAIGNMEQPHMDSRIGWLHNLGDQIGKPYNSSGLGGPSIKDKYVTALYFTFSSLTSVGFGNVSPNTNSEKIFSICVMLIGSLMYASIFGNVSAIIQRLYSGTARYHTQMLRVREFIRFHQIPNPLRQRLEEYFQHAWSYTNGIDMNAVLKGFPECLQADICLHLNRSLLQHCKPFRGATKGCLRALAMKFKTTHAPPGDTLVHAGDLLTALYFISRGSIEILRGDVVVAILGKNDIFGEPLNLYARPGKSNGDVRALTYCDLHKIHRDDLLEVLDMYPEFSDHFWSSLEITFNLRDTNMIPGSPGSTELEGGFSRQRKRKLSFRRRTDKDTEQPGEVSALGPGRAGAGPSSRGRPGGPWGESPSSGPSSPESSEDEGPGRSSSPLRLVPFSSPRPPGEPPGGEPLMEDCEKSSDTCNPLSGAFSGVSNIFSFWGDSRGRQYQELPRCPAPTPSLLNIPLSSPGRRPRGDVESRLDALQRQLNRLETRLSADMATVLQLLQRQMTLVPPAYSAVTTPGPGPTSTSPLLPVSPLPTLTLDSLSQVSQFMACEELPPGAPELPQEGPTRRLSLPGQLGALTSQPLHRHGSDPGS

Sequence of Lysosomal acid glucosylceramidase (P04062 whole entry): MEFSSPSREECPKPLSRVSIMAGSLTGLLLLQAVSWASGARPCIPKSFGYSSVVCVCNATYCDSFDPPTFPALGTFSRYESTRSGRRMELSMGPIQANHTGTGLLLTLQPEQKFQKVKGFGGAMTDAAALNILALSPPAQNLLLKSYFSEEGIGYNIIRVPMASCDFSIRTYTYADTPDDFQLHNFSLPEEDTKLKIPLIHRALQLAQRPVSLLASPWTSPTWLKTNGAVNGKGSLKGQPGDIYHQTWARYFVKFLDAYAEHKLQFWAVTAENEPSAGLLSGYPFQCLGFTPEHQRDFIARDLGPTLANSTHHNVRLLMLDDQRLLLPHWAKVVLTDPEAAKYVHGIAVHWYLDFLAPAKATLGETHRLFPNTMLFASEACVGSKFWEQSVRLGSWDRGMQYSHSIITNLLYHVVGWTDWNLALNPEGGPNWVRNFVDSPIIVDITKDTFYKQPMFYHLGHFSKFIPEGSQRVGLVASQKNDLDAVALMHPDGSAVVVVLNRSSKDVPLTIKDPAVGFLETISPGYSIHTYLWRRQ
Sequence of Cyclin-dependent kinase 5/CDK5 activator 1 (Q00535 whole entry): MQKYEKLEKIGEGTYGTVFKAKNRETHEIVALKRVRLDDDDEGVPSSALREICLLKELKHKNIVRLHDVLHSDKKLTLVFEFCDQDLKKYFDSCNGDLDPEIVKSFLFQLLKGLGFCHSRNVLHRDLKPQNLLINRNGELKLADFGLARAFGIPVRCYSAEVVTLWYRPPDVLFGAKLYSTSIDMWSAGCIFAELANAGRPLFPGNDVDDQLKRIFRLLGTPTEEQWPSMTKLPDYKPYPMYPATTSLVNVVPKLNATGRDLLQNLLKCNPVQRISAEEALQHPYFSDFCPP
Sequence of Cyclin-dependent kinase 5/CDK5 activator 1 (Q15078 whole entry, further chain): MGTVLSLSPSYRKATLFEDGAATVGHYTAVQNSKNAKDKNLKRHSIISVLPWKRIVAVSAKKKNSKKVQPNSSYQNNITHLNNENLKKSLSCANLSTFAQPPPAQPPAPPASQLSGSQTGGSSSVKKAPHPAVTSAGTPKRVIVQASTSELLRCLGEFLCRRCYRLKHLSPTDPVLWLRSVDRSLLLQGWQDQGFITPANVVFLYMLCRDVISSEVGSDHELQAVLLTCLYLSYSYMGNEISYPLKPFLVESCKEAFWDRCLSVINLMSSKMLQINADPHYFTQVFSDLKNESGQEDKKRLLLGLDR
Sequence of Mitogen-activated protein kinase 10 (P53779 whole entry): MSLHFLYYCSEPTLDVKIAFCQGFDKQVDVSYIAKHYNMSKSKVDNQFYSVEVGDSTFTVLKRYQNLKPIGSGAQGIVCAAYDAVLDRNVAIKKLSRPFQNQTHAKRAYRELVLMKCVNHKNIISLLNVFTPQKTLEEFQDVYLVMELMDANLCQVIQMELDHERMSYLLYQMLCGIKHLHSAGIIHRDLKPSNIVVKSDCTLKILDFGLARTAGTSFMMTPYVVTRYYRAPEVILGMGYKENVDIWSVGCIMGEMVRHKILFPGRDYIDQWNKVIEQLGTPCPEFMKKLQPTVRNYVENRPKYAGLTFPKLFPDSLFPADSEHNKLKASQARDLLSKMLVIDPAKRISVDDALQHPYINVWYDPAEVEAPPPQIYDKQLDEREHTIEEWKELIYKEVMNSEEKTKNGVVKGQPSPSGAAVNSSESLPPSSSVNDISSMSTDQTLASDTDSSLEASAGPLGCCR
Sequence of Photoreceptor-specific nuclear receptor (Q9Y5X4 whole entry): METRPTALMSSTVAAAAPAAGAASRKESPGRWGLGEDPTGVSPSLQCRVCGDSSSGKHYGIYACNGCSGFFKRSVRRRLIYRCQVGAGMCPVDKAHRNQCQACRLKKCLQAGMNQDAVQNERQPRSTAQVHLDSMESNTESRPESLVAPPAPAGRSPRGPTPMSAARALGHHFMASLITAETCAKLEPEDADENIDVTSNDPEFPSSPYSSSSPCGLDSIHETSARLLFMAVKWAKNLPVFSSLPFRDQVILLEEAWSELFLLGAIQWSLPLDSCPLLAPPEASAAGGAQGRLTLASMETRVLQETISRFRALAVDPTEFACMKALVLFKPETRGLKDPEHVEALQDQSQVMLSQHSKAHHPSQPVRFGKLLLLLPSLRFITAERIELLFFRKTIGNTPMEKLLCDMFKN
Sequence of Cytochrome P450 2D6 (P10635 whole entry): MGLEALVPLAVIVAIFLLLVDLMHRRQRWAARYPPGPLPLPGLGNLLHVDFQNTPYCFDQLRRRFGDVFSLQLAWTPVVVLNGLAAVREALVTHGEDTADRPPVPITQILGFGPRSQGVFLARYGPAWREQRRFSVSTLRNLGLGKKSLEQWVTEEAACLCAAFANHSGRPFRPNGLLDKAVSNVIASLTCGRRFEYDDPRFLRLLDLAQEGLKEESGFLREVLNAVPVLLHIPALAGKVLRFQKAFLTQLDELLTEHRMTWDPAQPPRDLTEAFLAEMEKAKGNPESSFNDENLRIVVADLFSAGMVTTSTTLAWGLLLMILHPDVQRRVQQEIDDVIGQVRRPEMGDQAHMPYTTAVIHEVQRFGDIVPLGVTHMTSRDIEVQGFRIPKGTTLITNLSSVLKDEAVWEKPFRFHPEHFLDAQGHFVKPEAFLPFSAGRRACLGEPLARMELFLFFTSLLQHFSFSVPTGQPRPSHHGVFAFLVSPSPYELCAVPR

With Cc1nn(Cc2c(Cl)cccc2Cl)c(C)c1NC(=O)c1cc(C(C)C)on1 the IC50 [1] was 10.5 µM (active), the CC50 [2] was 16.8 µM (active) and the IC50 [3] was 11.3 µM (active).

In the case of COc1ccc2cc3cc(C(=O)NCc4cccs4)oc3nc2c1, the IC50 [4] is reported as 12.9 µM (not active) and the IC50 [5] is reported as 10.7 µM (not active).

With N=C(NOC(=O)c1ccccc1)c1ccccn1 the AC50 [6] was 37.5 µM (active), the AC50 [7] was 11.9 µM (active) and the AC50 [8] was 20.6 µM (active). For the same molecule, the AC50 [9] was 8.6 µM (active).

With Cc1cccc2sc(NC(=O)CN(C)S(=O)(=O)c3cccs3)nc12 the EC50 [10] was > 10 µM (not active).

In the case of CN(C)c1ccc(C(=O)n2c3ccccc3c3ccccc32)cc1, the EC50 [11] is reported as > 500 µM (not active).

For c1ccc(CNc2ncnc3c2cnn3-c2ccccc2)cc1, the EC50 [12] was > 120 µM (not active), the EC50 [13] was 3.43 µM (active) and the IC50 [14] was 75.8 µM (not active). For the same molecule, the EC50 [15] was > 120 µM (not active).

In the case of CCCCN(CC)S(=O)(=O)c1ccc(C(=O)Nc2nnc(CSC)o2)cc1, the CC50 [16] is reported as 13.9 µM (active), the AC50 [17] is reported as 35.5 µM (inconclusive) and the EC50 [10] is reported as > 10 µM (not active).

In the case of CCOC(=O)C1CCCN(Cc2ccc(OCc3ccccc3)c(OC)c2)C1 (configuration not stated), the EC50 [18] is reported as < 100 nM (active), the EC50 [19] is reported as 10 nM (active) and the EC50 [20] is reported as > 60 µM (not active).

For Cc1ccc(C(=O)CC(=O)COc2ccc(Cl)cc2C)cc1, the EC50 [21] was 820 nM (active).
